Calls of active or inactive are those of the source.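 How the source made its calls: active means compounds giving half or more protection of infected cells from virus-caused growth loss, again on retest; inactive means the rest.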
System: CEM cells HIV-1 protection, formazan growth assay
Test: NCI AIDS Antiviral Assay
Settings: for IC50: measured here: growth of uninfected CEM cells
Summary of the method: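 CEM (human) cells, HIV-1 infected vs uninfected, 5-point dosing, formazan growth read-out. Retest threshold 50% protection.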

Row | SMILES | EC50 [µM] | IC50 [µM] | outcome
1 | CC(=O)N1C(=O)C2(Nc3cccnc3N2)c2ccccc21 (stereo unspecified) | > 100 | > 100 | –
2 | COc1ccc(CNc2nc3cc(C(F)(F)F)ccc3nc2C(=O)O)cc1OC | > 200 | 66.1 | –
3 | COC(=O)c1nc(N)nc(C(=O)OC)c1C(=O)c1ccccc1 | > 60.3 | > 60.3 | –
4 | CN1CCCCC1CCN1c2ccccc2Sc2ccc(S(C)=O)cc21 (stereo unspecified) | 166 | 219 | –
5 | CCOCN1COCN(C)C1=O | > 1450 | > 1450 | –
6 | CC1NC(=O)CC(c2ccccc2)N(N=O)C1c1ccccc1 (stereo unspecified) | – | – | inactive
7 | C[N+]1([O-])CCOCC1 | > 200 | > 200 | –
8 | C1=CCCC=CCC1.C[PH+](C)C.C[PH+](C)C.C[PH+](C)C.[Cl-].[Ir] | – | – | inactive
9 | NS(=O)(=O)c1ccc(-c2c3nc(c(-c4ccc(S(N)(=O)=O)cc4)c4ccc([nH]4)c(-c4ccc(S(N)(=O)=O)cc4)c4nc(c(-c5ccc(S(N)(=O)=O)cc5)c5ccc2[nH]5)C=C4)C=C3)cc1 | > 97.7 | 46.8 | –
10 | CC(=O)c1cccc(NC(=O)C(=O)C(C(=O)c2ccccc2F)C2OC(=O)c3ccccc32)c1 (stereo unspecified) | > 389 | 15.8 | –
11 | COc1ccc2c(c1OC)C(=O)N/C2=C\c1c(CCN(C)C)cc2c(c1OC)OCO2 | > 200 | > 100 | –
12 | c1ccc2nc3cc4c(cc3nc2c1)NC12CCCCC1CC1=C(CCCC1)N42 (stereo unspecified) | > 200 | 3.24 | –
13 | [N-]=[N+]=Nc1c(Br)c(=O)[nH]c(=O)n1COCCO | – | – | inactive
14 | C=C1CC(c2ccc(S(=O)(=O)N3CCOCC3)cc2)OC1=O (stereo unspecified) | > 200 | 2.82 | –
15 | CC1=NN2C(c3ccc([N+](=O)[O-])cc3)=CSC2=NC(C)(C)C1 | > 158 | > 158 | –
16 | CCOC(=O)C(=O)Nc1c(C)cccc1CC | > 776 | > 776 | –
17 | NC(N)=Nc1nn[nH]n1 | > 200 | > 200 | –
18 | COc1ccc(COCC(Cn2ccnc2)OCc2ccc(C(=O)O)cc2)cc1 (stereo unspecified) | > 631 | 589 | –
19 | O=S1(=O)OCCOS(=O)(=O)C1(Br)Br | > 363 | > 363 | –
20 | O=c1cc(NNc2ccc(F)cc2)[nH]c(=O)[nH]1 | > 200 | 2.95 | –
21 | CCOC(=S)SSSC(=S)OCC | > 110 | 34.7 | –

Row | SMILES | EC50 [µM] | IC50 [µM] | outcome
22 | C=C1C2CC[C@@H]3C(C2)(C(=O)C(O)[C@@H]2C(C)(C)[C@@H]4CC(=O)C32CO4)C1OC(C)=O (stereo partly specified) | > 646 | 8.13 | –
23 | CCOC(=O)/C=C/c1ccc2c(c1)OC(c1ccc(O)c(OC)c1)C(CO)O2 (stereo unspecified) | > 129 | 24.5 | –
24 | O=S1(=O)C=C(c2ccccc2)C2(c3ccccc3)C=NNC21 (stereo unspecified) | > 200 | > 200 | –
25 | CCOc1ccc(N2CC(=O)N3CCCCN3C(=O)C2)cc1 | > 200 | > 200 | –
26 | CCCCCN(CCCCC)c1ccc(/C=C/c2ccnc3ccccc23)cc1 | > 67.6 | > 67.6 | –
27 | O=C(O)CC(c1ccccc1)c1ccccc1 | > 794 | 437 | –
28 | O=C(CCCC(=O)N/N=C/c1ccc(O)c(O)c1)N/N=C\c1ccc(O)c(O)c1 | > 200 | 29.5 | –
29 | OCC(O)C(O)C(O)C(O)c1nc2ccccc2s1 (stereo unspecified) | > 126 | 97.7 | –
30 | Cc1ccc(NC(=O)CSc2nnc(Cc3ccccc3)o2)cc1 | > 55 | > 55 | –
31 | NC(=O)N/N=C(\Cc1nc2ccc(C(=O)c3ccccc3)cc2[nH]c1=O)C(=O)Nc1ccc(Br)cc1 | – | – | inactive
32 | COc1cc(/C=C2\C(=O)N(c3cccc(NC(C)=O)c3)C(c3ccccc3)S2(=O)=O)cc(OC)c1OC (stereo unspecified) | > 200 | 87.1 | –
33 | Cc1cc(NC(=O)c2ccc(N)cc2)ccc1N=Nc1ccc2c(O)c(N=Nc3ccc4cc(S(=O)(=O)O)ccc4c3)c(S(=O)(=O)O)cc2c1 | 25.1 | > 100 | –
34 | CC(=O)OCCOCn1cnc2c(Cl)nc(Cl)nc21 | > 200 | 7.24 | –
35 | COc1ccc(CC2Cc3ccccc3CC(=O)N2)cc1OC (stereo unspecified) | > 200 | 17.8 | –
36 | CCOC(=O)c1ccc(N=C2S/C(=C\C(=S)Nc3ccccc3)N(c3ccccc3)C2=Nc2ccc(C(=O)OCC)cc2)cc1 | > 200 | > 200 | –
37 | CC(C)c1oc(=O)cc2c1C(O)C1OC(=O)C3(C)C(O)C4OC4C2(C)C13 (stereo unspecified) | > 36.3 | 0.17 | –
38 | O=C(Nc1ccc(S(=O)(=O)N[C@@H](C(=O)O)c2ccccc2)cc1)c1ccc(F)cc1 | – | – | inactive
39 | C=CCOCn1ccc(N)nc1=O | – | – | inactive
40 | COc1c(C)c(O)c2c(=O)cc(-c3ccccc3)oc2c1C | > 63.1 | > 63.1 | –
41 | CCN(CC)C(=O)CCNC(C)Cc1c[nH]c2ccccc12 (stereo unspecified) | > 200 | > 200 | –
42 | S=C1NC(c2ccc(Cl)cc2)N2C(=S)NC(c3ccc(Cl)cc3)N12 (stereo unspecified) | – | – | inactive

Row | SMILES | EC50 [µM] | IC50 [µM] | outcome
43 | COc1ccc(C2C3C(=O)OCCOC(=O)C3C2c2ccc(OC)c(OC)c2)cc1OC (stereo unspecified) | > 91.2 | 83.2 | –
44 | Cc1cn(C2CC(/[N+]([O-])=N/Nc3ccc([N+](=O)[O-])cc3)C(CO[Si](C)(C)C(C)(C)C)O2)c(=O)[nH]c1=O (stereo unspecified) | > 200 | 7.41 | –
45 | O=S(=O)(Nc1nnc2ccc3ccccc3n12)c1ccc(Cl)cc1S | > 200 | 105 | –
46 | COc1ccc2c(c1O)C13CCN(C)C(C2)C12C=CC(=O)C3c1c(O)ccc(O)c12 (stereo unspecified) | > 200 | 2.95 | –
47 | CCOC(=O)c1nnc2sc(-c3ccccc3)nn12 | 58.9 | 191 | –
48 | COC(=O)c1ccc(NCc2cc(O)ccc2O)cc1 | > 200 | 11.7 | –
49 | Cc1ccc(-c2nnc(-c3nn(-c4ccccc4)c4nc5ccccc5nc34)o2)cc1 | – | – | inactive
50 | COc1ccc(C2(CC(C)C)CCN(S(=O)(=O)c3ccc(C)cc3)C2)cc1OC (stereo unspecified) | > 178 | 20 | –
51 | CCCCN(CCCC)CC(N=O)c1cc(-c2ccc(Cl)c(Cl)c2)nc2c(Cl)cc(Cl)cc12 (stereo unspecified) | – | – | inactive
52 | CN(C)c1ccc(C=C(C(=O)c2ccccc2)C(=O)c2ccccc2)cc1 | > 10.7 | > 10.7 | –
53 | N=C(N)c1ccc(/C=C/c2ccc(C(=N)N)cc2O)cc1 | > 1450 | 55 | –
54 | Cc1ccc(Cc2n[nH]c(=O)n2/N=C\CC/C=N\n2c(Cc3ccc(C)cc3)n[nH]c2=O)cc1 | > 200 | 120 | –
55 | CC1=C(C(=O)Nc2cc(=O)n(C)c(=O)n2C)C(c2ccco2)C(C(=O)Nc2cc(=O)n(C)c(=O)n2C)=C(C)N1 | > 93.3 | > 93.3 | –
56 | COc1c(Cl)cc(C(=CCCCC(=O)O)c2cc(Cl)c(OC)c(C(=O)O)c2)cc1C(=O)O | > 200 | > 200 | –
57 | O=C(NC12CC3CC(NC(=O)c4ccccc4)(CC(C1)c1ccccc13)C2)c1ccccc1 | > 12 | > 12 | –
58 | CCCCCCCCCCC(c1cc(Cl)c(OC)c(C(=O)OC)c1)c1cc(Cl)c(OC)c(C(=O)OC)c1 | > 38.9 | > 38.9 | –
59 | CCCCCCCCCCC/C=C(/C(=O)CCCO[Si](C)(C)C(C)(C)C)C(=O)OC | > 200 | > 200 | –
60 | NC(=O)NNC(=O)NC12CC3CC(CC(C3)C1)C2 | – | – | inactive
61 | S=c1nc(Oc2ccc(Cl)c(Cl)c2)[nH]c(=S)[nH]1 | > 23.4 | > 23.4 | –
62 | CN(C)CCNC(=O)c1ccccc1Nc1c(Cl)cccc1Cl | > 200 | 39.8 | –
63 | O=c1[nH]c2ccccc2c(O)c1Cc1ccccc1 | > 200 | > 200 | –

Source: PubChem BioAssay AID179 (DTP/NCI, 2004)
